Assay [1] concerns platelet-rich human plasma; platelet aggregation induced by collagen. Kind of assay: Platelet aggregation (platelet-rich human plasma) induced in vitro by collagen. As to conditions: platelet-rich human plasma, 300,000 platelets/cm^2, 10.0 μg/ml of collagen; read-out: IC50, inductor: collagen. In kind it is cell-based. The method, then: (§1) Study of the Effects on the Platelet Aggregation (Platelet-Rich Human Plasma) Induced in Vitro By: ADP, Collagen or Arachidonic Acid Blood samples from volunteer donors are treated and adjusted to a platelet concentration of 300,000/cm^2 and then incubated with different concentrations of the test products. Aggregation is induced by 2.0 μg/ml of ADP or by 10.0 μg/ml of collagen. The measurements are made using a Bryston-type aggregometer--or CHRONOLOG. The changes in optical density are noted and the values of the concentrations which cause a 50% inhibition are calculated.

Assay [2] relates to platelet-rich human plasma; platelet aggregation induced by ADP. Nature of the assay: Platelet aggregation (platelet-rich human plasma) induced in vitro by ADP. It is filed as cell-based. The settings on record: platelet-rich human plasma, 300,000 platelets/cm^2, 2.0 μg/ml of ADP; read-out: IC50, inductor: ADP. The method, then: as §1
The subject of assay [3] is isolated guinea-pig intestine. Kind of assay: Antagonistic effects on isolated guinea-pig intestine (MAGNUS). As to conditions: 0.1 μg/ml.
In another assay the test system is platelet aggregation. Kind of assay: In vitro inhibition of platelet aggregation (BORN's method), induced by collagen or ADP. In kind it is cell-based, animal and human. As to conditions: 100 μg/ml, aspirin as reference. On the procedure: In vitro inhibition of platelet aggregation The inhibition of platelet aggregation is measured in vitro by BORN's method (Nature 4832, 927 (1962)), the aggregation being induced by collagen or ADP. […] The aggregation can also be induced in vitro by serotonin, arachidonic acid and norepinephrine. Furthermore, this inhibitory effect was observed on platelet-rich plasma (PRP) of animal origin and human origin.

Counter-ions that a name gives are not always drawn.

As a reminder, the IC50 is the concentration at which inhibition is half-maximal. Take `Cl.Cl.c1cncc(CON=C2CC(=NOCc3cccnc3)c3ccccc3-c3ccccc32)c1` [Example 14, 5,7-Bis(pyridin-3-ylmethoxyimino)-6,7-dihydro-(5H)-dibenzo[a,c]cycloheptene dihydrochloride]: the figures for the IC50 in assay [1] and in assay [2] were 600 µg/mL and 460 µg/mL, respectively. Besides, the “inhibitory effect on isolated guinea-pig intestine” value (shortened to “inhibitory effect”) in assay [3] is recorded as “still substantial”.

With `CCN(CC)CCON=C1CC(=NOCCN(CC)CC)c2ccccc2-c2ccccc21.Cl.Cl` [Example 15, 5,7-Bis(2-Diethylaminoethoxyimino)-6,7-Dihydro-(5H)-Dibenzo[a,c]Cycloheptene Dihydrochloride], the results for the IC50 in assay [1] and in assay [2] were 24 µg/mL and 10 µg/mL, respectively. Moreover, the “inhibition of platelet aggregation compared with aspirin” value (“inhibition … compared with aspirin” for short) with platelet aggregation is given as “comparable or even superior to aspirin”. Besides, the “inhibitory effect” value in assay [3] was “still substantial”.

`CCN(CC)CCON=C1CC(=NOCCN(CC)CC)c2ccccc2-c2ccccc21.O=C(O)/C=C\C(=O)O.O=C(O)/C=C\C(=O)O` [Example 16, 5,7-Bis(2-Diethylaminoethoxyimino)-6,7-Dihydro-(5H)-Dibenzo[a,c]Cycloheptene Dimaleate]: the IC50 amounted to 22 µg/mL in assay [1] and 16 µg/mL in assay [2]. In addition, in the assay on platelet aggregation, the “inhibition … compared with aspirin” value is “comparable or even superior to aspirin”. Moreover, in assay [3], the “inhibitory effect” value is reported as “still substantial”.

Turning to `CCN(CC)CCON=C1CC(=NOCCN(CC)CC)c2ccccc2-c2ccccc21.O=C(O)C(O)C(O)C(=O)O.O=C(O)C(O)C(O)C(=O)O` [Example 17, 5,7-Bis(2-Diethylaminoethoxyimino)-6,7-Dihydro-(5H)-Dibenzo[a,c]Cycloheptene Ditartrate], the IC50 in assay [1] was determined as 16 µg/mL; in assay [2], 10 µg/mL. In addition, the “inhibition … compared with aspirin” value in the assay on platelet aggregation is listed as “comparable or even superior to aspirin”. The “inhibitory effect” value in assay [3] is recorded as “still substantial”.

Regarding `Cl.Cl.NCCON=C1CC(=NOCCN)c2ccccc2-c2ccccc21` [Example 18, 5,7-Bis(2-Aminoethoxyimino)-6,7-Dihydro-(5H)-Dibenzo[a,c]Cycloheptene Dihydrochloride], the IC50 was 50 µg/mL in assay [1] and 40 µg/mL in assay [2]. For the same molecule, the “inhibition … compared with aspirin” value with platelet aggregation is reported as “comparable or even superior to aspirin”. For the same molecule, the “inhibitory effect” value in assay [3] was “still substantial”.

With `Cl.Cl.NCCCON=C1CC(=NOCCCN)c2ccccc2-c2ccccc21` [Example 19, 5,7-Bis(3-Aminopropoxyimino)-6,7-Dihydro-(5H)-Dibenzo[a,c]Cycloheptene Dihydrochloride], the figures for the IC50 in assay [1] and in assay [2] were 175 µg/mL and 100 µg/mL, respectively. In the assay on platelet aggregation, the “inhibition … compared with aspirin” value is listed as “comparable or even superior to aspirin”. Moreover, in assay [3], the “inhibitory effect” value was “still substantial”.

Consider `CCN(CC)CCON=C1CC(=NOCCN(CC)CC)c2ccccc21` [Example 22, 1,3-Bis(2-Diethylaminoethoxyimino)-(1H)-Indene-(1H) Dihydrochloride], for which the concentration for half-maximal inhibition (IC50) in assay [1] worked out at 145 µg/mL; in assay [2] it was 160 µg/mL. Also, the “inhibitory effect” value in assay [3] is on record as “still substantial”.
